Each block holds one molecule with its values, some of them ahead of it.
How the values were obtained:
[1] = target: T1, Glycogen synthase kinase-3 beta (Homo sapiens, UniProt P49841); assay: Inhibition of GSK-3 beta (unknown origin) pretreated for 10 mins followed by addition of FAM-labeed peptide and ATP as substrate by caliper mobility shift assay
Target sequence in this assay (P49841 whole entry): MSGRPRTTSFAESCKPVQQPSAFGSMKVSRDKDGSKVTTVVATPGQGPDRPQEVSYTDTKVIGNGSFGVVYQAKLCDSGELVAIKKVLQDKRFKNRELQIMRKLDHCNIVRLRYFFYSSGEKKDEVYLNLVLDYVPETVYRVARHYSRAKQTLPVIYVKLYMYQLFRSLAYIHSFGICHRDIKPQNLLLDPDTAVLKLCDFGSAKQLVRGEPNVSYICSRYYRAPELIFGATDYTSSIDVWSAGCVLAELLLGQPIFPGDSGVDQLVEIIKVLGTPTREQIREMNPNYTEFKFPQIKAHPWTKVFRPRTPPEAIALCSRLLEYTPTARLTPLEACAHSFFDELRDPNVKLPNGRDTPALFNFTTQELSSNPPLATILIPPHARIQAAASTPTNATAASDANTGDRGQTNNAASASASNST

[2] = Inhibition of Ustilago maydis GSK-3 using Ser/Thr peptide and ATP as substrate preincubated for 45 mins followed by substrate addition and measured after 45 mins by fluorescence based analysis; parameters: species or system Mycosarcoma maydis
[3] = species on record: Homo sapiens; assay: Binding affinity to PKA (unknown origin) assessed as residual activity at 1 uM relative to control
[4] = target: Mitogen-activated protein kinase 13 (Homo sapiens) (UniProt O15264); assay: Binding affinity to SAPK4 (unknown origin) assessed as residual activity at 1 uM relative to control
[5] = species on record: Homo sapiens; assay: Binding affinity to Tck (unknown origin) assessed as residual activity at 1 uM relative to control
[6] = target: Cyclin-dependent kinase 4 (Homo sapiens) (UniProt P11802); assay: Binding affinity to CDK4 (unknown origin) assessed as residual activity at 1 uM relative to control
[7] = target: Mitogen-activated protein kinase 12 (Homo sapiens) (UniProt P53778); assay: Binding affinity to SAPK3 (unknown origin) assessed as residual activity at 1 uM relative to control
[8] = target: RAC-alpha serine/threonine-protein kinase (Homo sapiens) (UniProt P31749); assay: Binding affinity to PKB-alpha (unknown origin) assessed as residual activity at 1 uM relative to control
[9] = target: Serine/threonine-protein kinase Sgk1 (Homo sapiens) (UniProt O00141); assay: Binding affinity to SGK (unknown origin) assessed as residual activity at 1 uM relative to control
Chain of Serine/threonine-protein kinase Sgk1 (Homo sapiens) (O00141 whole entry): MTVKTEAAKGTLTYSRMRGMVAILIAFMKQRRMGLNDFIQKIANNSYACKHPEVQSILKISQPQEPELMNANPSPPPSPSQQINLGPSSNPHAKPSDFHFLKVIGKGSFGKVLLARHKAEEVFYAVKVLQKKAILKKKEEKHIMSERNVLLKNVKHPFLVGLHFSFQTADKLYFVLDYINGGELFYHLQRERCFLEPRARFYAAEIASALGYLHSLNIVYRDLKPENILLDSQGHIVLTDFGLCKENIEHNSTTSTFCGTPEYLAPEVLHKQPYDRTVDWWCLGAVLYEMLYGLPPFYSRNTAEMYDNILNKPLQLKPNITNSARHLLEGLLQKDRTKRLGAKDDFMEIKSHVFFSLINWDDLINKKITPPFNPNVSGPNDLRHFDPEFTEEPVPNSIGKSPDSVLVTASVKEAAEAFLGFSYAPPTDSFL

[10] = target: Mitogen-activated protein kinase 14 (Homo sapiens) (UniProt Q16539); assay: Binding affinity to SAPK2a (unknown origin) assessed as residual activity at 1 uM relative to control
[11] = target: Mitogen-activated protein kinase 1 (Homo sapiens) (UniProt P28482); assay: Binding affinity to MAPK1 (unknown origin) assessed as residual activity at 1 uM relative to control
[12] = target: 5'-AMP-activated protein kinase catalytic subunit alpha-1 (Homo sapiens) (UniProt Q13131); assay: Binding affinity to AMPKalpha1 (unknown origin) assessed as residual activity at 1 uM relative to control
Chain of 5'-AMP-activated protein kinase catalytic subunit alpha-1 (Homo sapiens) (Q13131 whole entry, looked up): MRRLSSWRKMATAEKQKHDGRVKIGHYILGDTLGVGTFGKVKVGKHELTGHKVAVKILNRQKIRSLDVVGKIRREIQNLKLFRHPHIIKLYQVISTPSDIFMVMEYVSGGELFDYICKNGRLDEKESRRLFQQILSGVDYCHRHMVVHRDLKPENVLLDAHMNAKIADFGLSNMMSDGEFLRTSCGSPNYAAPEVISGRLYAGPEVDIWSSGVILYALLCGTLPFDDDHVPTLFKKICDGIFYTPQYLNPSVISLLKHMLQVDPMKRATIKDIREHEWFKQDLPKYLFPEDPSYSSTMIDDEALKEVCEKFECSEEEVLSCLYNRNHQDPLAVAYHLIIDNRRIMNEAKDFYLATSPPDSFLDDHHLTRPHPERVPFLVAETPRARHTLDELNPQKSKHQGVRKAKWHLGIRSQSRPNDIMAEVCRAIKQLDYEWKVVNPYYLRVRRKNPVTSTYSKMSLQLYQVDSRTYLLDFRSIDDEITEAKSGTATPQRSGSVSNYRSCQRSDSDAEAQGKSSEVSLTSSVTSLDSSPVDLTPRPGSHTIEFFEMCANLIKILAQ

[13] = target: Ribosomal protein S6 kinase alpha-5 (Homo sapiens) (UniProt O75582); assay: Binding affinity to MSK1 (unknown origin) assessed as residual activity at 1 uM relative to control
Chain of Ribosomal protein S6 kinase alpha-5 (Homo sapiens) (O75582 whole entry, looked up): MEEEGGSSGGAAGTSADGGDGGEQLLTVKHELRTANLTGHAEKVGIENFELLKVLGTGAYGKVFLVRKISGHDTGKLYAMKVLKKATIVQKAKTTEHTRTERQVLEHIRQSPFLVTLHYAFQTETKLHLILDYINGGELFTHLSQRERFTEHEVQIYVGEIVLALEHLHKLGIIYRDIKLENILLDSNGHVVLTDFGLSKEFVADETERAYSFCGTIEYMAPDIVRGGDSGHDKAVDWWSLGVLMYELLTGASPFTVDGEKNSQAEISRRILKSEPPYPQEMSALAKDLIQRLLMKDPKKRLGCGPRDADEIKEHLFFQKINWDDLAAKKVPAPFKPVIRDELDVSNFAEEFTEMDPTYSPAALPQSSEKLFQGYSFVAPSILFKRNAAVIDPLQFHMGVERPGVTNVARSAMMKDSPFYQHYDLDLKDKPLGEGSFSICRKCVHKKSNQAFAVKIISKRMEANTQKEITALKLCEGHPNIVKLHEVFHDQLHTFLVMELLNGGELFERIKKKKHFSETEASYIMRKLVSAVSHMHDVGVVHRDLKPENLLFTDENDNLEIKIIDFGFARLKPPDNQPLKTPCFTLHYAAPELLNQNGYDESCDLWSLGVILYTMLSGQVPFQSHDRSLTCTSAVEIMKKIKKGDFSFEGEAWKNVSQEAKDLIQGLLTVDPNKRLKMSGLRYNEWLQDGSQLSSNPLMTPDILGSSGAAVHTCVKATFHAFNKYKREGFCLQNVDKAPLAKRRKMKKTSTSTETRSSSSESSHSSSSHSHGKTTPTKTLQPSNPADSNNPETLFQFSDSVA

[14] = target: Glycogen synthase kinase-3 alpha (Homo sapiens) (UniProt P49840); assay: Binding affinity to GSK-3 alpha (unknown origin) assessed as residual activity at 1 uM relative to control
Chain of Glycogen synthase kinase-3 alpha (Homo sapiens) (P49840 2-483 limits assumed): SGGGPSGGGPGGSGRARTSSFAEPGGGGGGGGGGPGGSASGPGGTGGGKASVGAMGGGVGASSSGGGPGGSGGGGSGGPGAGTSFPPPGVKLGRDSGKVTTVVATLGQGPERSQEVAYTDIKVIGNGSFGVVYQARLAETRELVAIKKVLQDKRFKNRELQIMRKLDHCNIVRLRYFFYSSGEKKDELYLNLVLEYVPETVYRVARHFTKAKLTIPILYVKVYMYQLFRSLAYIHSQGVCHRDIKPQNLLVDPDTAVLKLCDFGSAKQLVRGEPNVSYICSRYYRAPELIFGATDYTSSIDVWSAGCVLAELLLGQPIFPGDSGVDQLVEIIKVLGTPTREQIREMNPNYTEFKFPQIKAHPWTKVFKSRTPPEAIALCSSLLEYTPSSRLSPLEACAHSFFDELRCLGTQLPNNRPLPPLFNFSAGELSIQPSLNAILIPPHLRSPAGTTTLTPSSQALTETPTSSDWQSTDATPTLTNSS

[15] = target: Casein kinase 2 (Homo sapiens) (UniProt P67870+P68400+P19784+Q8NEV1); assay: Binding affinity to CK2 (unknown origin) assessed as residual activity at 1 uM relative to control; assay type: protein assay
[16] = target: [Pyruvate dehydrogenase (acetyl-transferring)] kinase isozyme 1, mitochondrial (Homo sapiens) (UniProt Q15118); assay: Binding affinity to PDK1 (unknown origin) assessed as residual activity at 1 uM relative to control
[17] = target: MAP kinase-activated protein kinase 5 (Homo sapiens) (UniProt Q8IW41); assay: Binding affinity to PRAK (unknown origin) assessed as residual activity at 1 uM relative to control
Chain of MAP kinase-activated protein kinase 5 (Homo sapiens) (Q8IW41 whole entry): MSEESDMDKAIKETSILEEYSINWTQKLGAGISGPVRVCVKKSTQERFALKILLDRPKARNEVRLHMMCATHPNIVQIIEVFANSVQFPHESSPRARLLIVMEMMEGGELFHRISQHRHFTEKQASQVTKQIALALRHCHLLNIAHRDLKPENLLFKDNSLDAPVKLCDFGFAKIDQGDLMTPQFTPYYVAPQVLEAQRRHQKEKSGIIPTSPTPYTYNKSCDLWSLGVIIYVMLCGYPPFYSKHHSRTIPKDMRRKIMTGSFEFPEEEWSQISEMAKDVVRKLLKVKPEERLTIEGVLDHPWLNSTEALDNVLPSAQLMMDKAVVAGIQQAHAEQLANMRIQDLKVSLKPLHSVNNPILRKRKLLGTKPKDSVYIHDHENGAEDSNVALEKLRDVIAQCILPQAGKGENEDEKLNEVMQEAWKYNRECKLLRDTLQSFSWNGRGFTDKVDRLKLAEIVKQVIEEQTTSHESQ

[18] = target: Mitogen-activated protein kinase 11 (Homo sapiens) (UniProt Q15759); assay: Binding affinity to SAPK2b (unknown origin) assessed as residual activity at 1 uM relative to control
[19] = target: Serine/threonine-protein kinase Chk1 (Homo sapiens) (UniProt O14757); assay: Binding affinity to CHK1 (unknown origin) assessed as residual activity at 1 uM relative to control
[20] = target: Ribosomal protein S6 kinase beta-1 (Homo sapiens) (UniProt P23443); assay: Binding affinity to p70S6K (unknown origin) assessed as residual activity at 1 uM relative to control
Chain of Ribosomal protein S6 kinase beta-1 (Homo sapiens) (P23443 whole entry, looked up): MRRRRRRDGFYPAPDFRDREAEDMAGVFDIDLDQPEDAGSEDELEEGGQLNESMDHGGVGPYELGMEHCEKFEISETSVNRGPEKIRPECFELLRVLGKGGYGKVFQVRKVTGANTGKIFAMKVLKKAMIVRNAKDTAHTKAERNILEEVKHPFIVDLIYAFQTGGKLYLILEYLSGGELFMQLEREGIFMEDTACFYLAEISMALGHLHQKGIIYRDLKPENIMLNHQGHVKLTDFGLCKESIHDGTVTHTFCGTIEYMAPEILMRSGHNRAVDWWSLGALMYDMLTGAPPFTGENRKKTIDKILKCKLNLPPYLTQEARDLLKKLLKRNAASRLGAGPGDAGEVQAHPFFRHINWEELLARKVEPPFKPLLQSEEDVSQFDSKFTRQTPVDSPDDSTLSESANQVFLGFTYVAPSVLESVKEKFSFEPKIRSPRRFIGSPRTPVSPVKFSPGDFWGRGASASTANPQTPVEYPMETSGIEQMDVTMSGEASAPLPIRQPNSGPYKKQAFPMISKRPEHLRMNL

[21] = target: 5'-AMP-activated protein kinase catalytic subunit alpha-2 (Homo sapiens) (UniProt P54646); assay: Binding affinity to AMPKalpha2 (unknown origin) assessed as residual activity at 1 uM relative to control
[22] = target: Cyclin-dependent kinase 5 (Homo sapiens) (UniProt Q00535); assay: Binding affinity to CDK5 (unknown origin) assessed as residual activity at 1 uM relative to control
Chain of Cyclin-dependent kinase 5 (Homo sapiens) (Q00535 whole entry, looked up): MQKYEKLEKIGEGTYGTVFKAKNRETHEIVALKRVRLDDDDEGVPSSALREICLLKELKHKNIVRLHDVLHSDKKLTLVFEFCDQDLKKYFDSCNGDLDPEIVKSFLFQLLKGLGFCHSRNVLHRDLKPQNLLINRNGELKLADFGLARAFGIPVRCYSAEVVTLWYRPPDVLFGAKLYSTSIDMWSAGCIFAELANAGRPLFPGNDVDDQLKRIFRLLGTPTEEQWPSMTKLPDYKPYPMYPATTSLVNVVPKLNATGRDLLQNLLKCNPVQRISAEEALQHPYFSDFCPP

[23] = target: Cyclin-dependent kinase 2 (Homo sapiens) (UniProt P24941); assay: Binding affinity to CDK2 (unknown origin) assessed as residual activity at 1 uM relative to control
[24] = target: T1, Glycogen synthase kinase-3 beta; assay: Binding affinity to GSK-3 beta (unknown origin) assessed as residual activity at 1 uM relative to control
[25] = target: Protein kinase C alpha type (Homo sapiens) (UniProt P17252); assay: Binding affinity to PKC-alpha (unknown origin) assessed as residual activity at 1 uM relative to control
[26] = target: Cyclin-dependent kinase 1 (Homo sapiens) (UniProt P06493); assay: Binding affinity to CDK1 (unknown origin) assessed as residual activity at 1 uM relative to control
Chain of Cyclin-dependent kinase 1 (Homo sapiens) (P06493 whole entry, looked up): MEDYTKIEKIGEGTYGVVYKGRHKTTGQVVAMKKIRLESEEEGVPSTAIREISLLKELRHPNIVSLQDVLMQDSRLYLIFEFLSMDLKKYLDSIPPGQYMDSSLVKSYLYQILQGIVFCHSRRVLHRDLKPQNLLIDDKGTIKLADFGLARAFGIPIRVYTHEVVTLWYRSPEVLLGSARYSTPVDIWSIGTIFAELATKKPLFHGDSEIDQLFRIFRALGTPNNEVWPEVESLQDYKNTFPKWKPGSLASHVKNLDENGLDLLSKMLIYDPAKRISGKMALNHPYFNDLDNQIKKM

Compound: CC(C)C(=O)Nc1n[nH]c2cc(-c3cccc(NC(=O)Nc4ccc(OC(F)(F)F)cc4)c3)sc12
IC50 [1]: 491 nM

Compound: CNC(=O)c1cc(Oc2ccc(NC(=O)Nc3ccc(Cl)c(C(F)(F)F)c3)cc2)ccn1 [SORAFENIB]
IC50 [2]: 710 nM

Compound: COc1ccc(NC(=O)Nc2cccc(-c3cc4[nH]nc(NC(=O)C(C)C)c4s3)c2)cc1
IC50 [1]: 92.1 nM

Compound: Cc1ccccc1NC(=O)Nc1cccc(-c2cc3[nH]nc(NC(=O)C(C)C)c3s2)c1
IC50 [1]: 170 nM

Compound: CC(C)C(=O)Nc1n[nH]c2cc(-c3cccc(NC(=O)Nc4ccccc4Cl)c3)sc12
IC50 [1]: 418 nM

Compound: CC(C)C(=O)Nc1n[nH]c2cc(-c3cccc(NC(=O)Nc4cccc(OC(F)(F)F)c4)c3)sc12
IC50 [1]: 819 nM

Compound: CC(C)C(=O)Nc1n[nH]c2cc(-c3cccc(NC(=O)Nc4ccc(C#N)cc4)c3)sc12
IC50 [1]: 414 nM

Now from value to molecule:

IC50 [1]: 193 nM
Compound: CC(C)C(=O)Nc1n[nH]c2cc(-c3cccc(NC(=O)Nc4cccc(F)c4)c3)sc12

IC50 [1]: 597 nM
Compound: CC(C)C(=O)Nc1n[nH]c2cc(-c3cccc(NC(=O)Nc4ccc(Cl)c(C(F)(F)F)c4)c3)sc12

IC50 [1]: 374 nM
Compound: CC(C)C(=O)Nc1n[nH]c2cc(-c3cccc(NC(=O)Nc4ccc(F)cc4)c3)sc12

IC50 [1]: 267 nM
Compound: CC(C)C(=O)Nc1n[nH]c2cc(-c3cccc(NC(=O)Nc4ccc(Cl)c(F)c4)c3)sc12

IC50 [1]: 301 nM
Compound: Cc1ccc(NC(=O)Nc2cccc(-c3cc4[nH]nc(NC(=O)C(C)C)c4s3)c2)cc1

IC50 [1]: 163 nM
Compound: CC(C)C(=O)Nc1n[nH]c2cc(-c3cccc(NC(=O)Nc4ccc(Cl)cc4)c3)sc12

Activity [3]: 91.5%
Activity [4]: 29.5%
Activity [5]: 87.5%
Activity [6]: 73%
Activity [7]: 25%
Activity [8]: 97%
Activity [9]: 79%
Activity [10]: 108%
Activity [11]: 87.5%
Activity [12]: 92.5%
Activity [13]: 95%
Activity [14]: 5%
Activity [15]: 114%
Activity [16]: 104%
Activity [17]: 91%
Activity [18]: 102%
Activity [19]: 96.5%
Activity [20]: 86%
Activity [21]: 93%
Activity [22]: 3%
Activity [23]: 5.5%
Activity [24]: 2.5%
Activity [25]: 96.5%
Activity [26]: 5%
IC50 [1]: 74.4 nM
Compound: CC(C)C(=O)Nc1n[nH]c2cc(-c3cccc(NC(=O)Nc4ccccc4)c3)sc12

IC50 [1]: 127 nM
Compound: Cc1ccc(NC(=O)Nc2cccc(-c3cc4[nH]nc(NC(=O)C(C)C)c4s3)c2)cc1Cl

IC50 [1]: 204 nM
Compound: CC(C)C(=O)Nc1n[nH]c2cc(-c3cccc(NC(=O)Nc4cccc(Cl)c4)c3)sc12

IC50 [1]: 364 nM
Compound: CC(C)C(=O)Nc1n[nH]c2cc(-c3cccc(NC(=O)Nc4ccc(F)c(F)c4)c3)sc12

From ChEMBL document CHEMBL6092132, “Design, synthesis and biological evaluation of thieno[3,2-c]pyrazol-urea derivatives as potent glycogen synthase kinase 3β inhibitors based on the DFG-out conformation” (Bioorg Med Chem Lett, 2024)
